pIC50: −log10 of the molar value.

The test system of the experiment is platelet aggregation. The experiment is described as follows: In-Vitro Platelet Aggregation in PRP (ADP-induced). Format: cell-based. Conditions: Canis lupus familiaris; dog platelet-rich plasma; ADP 50 μM final; 1 min preincubation at 37° C.; read-out: IC50 (dosage at which 50% of platelet aggregation is inhibited). As for the experimental part:
Healthy male or female dogs were fasted for 8 hours prior to drawing blood; then 30 mL whole blood was collected using a butterfly needle and 30 mL plastic syringe with 3 mL of 0.129M buffered sodium citrate (3.8%). The syringe was rotated carefully as blood was drawn to mix the citrate. Platelet-rich plasma (PRP) was prepared by centrifugation at 975×g for 3.17 minutes at room temperature allowing the centrifuge to coast to a stop without braking. The PRP was removed from the blood with a plastic pipette and placed in a plastic-capped 50 mL Corning conical sterile centrifuge tube which was held at room temperature. Platelet-poor plasma (PPP) was prepared by centrifuging the remaining blood at 2000×g for 15 minutes at room temperature allowing the centrifuge to coast to a stop without braking. The PRP was adjusted with PPP to a count of 2-3×10^8 platelets/mL. The PRP preparation (400 μL) and 50 μL of the compound solution to be tested or saline were preincubated for 1 minute at 37° C. in a BioData aggregometer (BioData, Horsham, Pa.). Adenosine-5'-diphosphate (ADP, 50 μL, 50 μM final concentration) was added to the cuvettes and the aggregation was monitored for 1 minute. All compounds are tested in duplicate. Results are calculated as follows: Percent of control=[(maximal OD minus initial OD of compound) divided by (maximal OD minus initial OD of control saline)]×100. The percent inhibition equals 100-(percent of control).
The compounds tested and their median inhibitory concentrations (IC50) are recorded in Table 1. The IC50 (dosage at which 50% of platelet aggregation is inhibited) were calculated by linear regression of the dose response curve.
In the case of `N=C(N)c1cnc(CCCCC(=O)NC(CC(=O)O)c2ccccc2)nc1` (stereo not drawn) [Ex. 3, β-[[5-[5-(aminoiminomethyl)-2-pyrimidinyl]-1-oxopentyl]amino]-phenylpropanoic acid], the pIC50 is 5.66.
Turning to `N=C(N)c1cnc(CCCCC(=O)NC(CC(=O)O)c2cccnc2)nc1` (stereo not drawn) [Ex. 6, β-[[5-[5-(aminoiminomethyl)-2-pyrimidinyl]-1-oxopentyl]amino]-3-pyridinepropanoic acid], the negative-log IC50 (pIC50) was 6.28.
As for `N=C(N)c1cnc(CCCCC(=O)N[C@@H](CC(=O)O)C(=O)N[C@@H](Cc2ccccc2)C(N)=O)nc1` (relative stereo) [Ex. 1, [S,(R*,R*)]-3-[[5-[5-(aminoiminomethyl)-2-pyrimidinyl]-1-oxopentyl]amino]-4-[[2-amino-2-oxo-1-(phenylmethyl)ethyl]amino]-4-oxobutanoic acid], the negative logarithm of the IC50 (pIC50) is 6.23.
For `N=C(N)c1cnc(CCCCC(=O)NCCC(=O)O)nc1` [Ex. 4, N-[5-[5-(aminoiminomethyl)-2-pyrimidinyl]-1-oxopentyl]-β-alanine], the pIC50 is 4.30.
As to `N=C(N)c1cnc(CCCCC(=O)N[C@@H](CC(=O)O)C(=O)N[C@@H](Cc2ccccc2)C(=O)O)nc1` [Ex. 2], the pIC50 is 6.96.

Source of the values: patent publication US5872122A, “Pyrimidinylamidino β-amino acid derivatives useful as inhibitors of platelet aggregation” (Monsanto Company, priority 1997, dated 1999).
